Values joined by “and” are separate entries in the source; they are usually repeats but may differ in a detail not shown here. Equal values may be shown once. “Also recorded” adds a separate entry of the source. Read-outs that look alike come from different tables or passages of the source.
Legend:
CrPII = assay: ITC binding of small effector molecules to green algal CrPII; set-up: species or system Chlamydomonas reinhardtii
Description: (§1) To gain additional insights into the ligand binding properties of PpPII in comparison to cyanobacterial and chloroplastid PII proteins, isothermal titration calorimetry (ITC) experiments were performed using highly purified Strep-tagged or His-tagged recombinant PpPII, SyPII, CrPII, and PhyscoPII proteins (Supplementary Fig. S1) with different protein/ligand/ concentrations to determine the best fitting conditions of the binding model. The titration experiments were repeated with different protein preparations to confirm the reproducibility of the results. The raw isothermal data were fitted into one-binding site as well as three-sequential binding sites to define the best fitting model. Fitting using a one binding site model states an average Kd value for all available binding sites and the mean of the stoichiometry of bound ligands.
(§2) The ITC experiments were done using a VP-ITC microcalorimeter (MicroCal, LCC). All details for determination of binding constants for small effector molecules using ITC are fully described in the supplementary information. Heat isotherms of the dilution of the ligand in the cell buffer were collected in a blank run for each experiment in the absence of protein. The binding isotherms were calculated from received data and fitted to one-site and three-sequential binding sites models using the MicroCal ORIGIN software (Northampton) as described. All titrations were performed in duplicates with different purification batches of recombinant PII proteins. The association binding constant (Ka) was generated from the software by de-convolution and curve fitting. For calculation of dissociation constant (Kd), the Ka value was inversed.
(§3) Supplementary Information […]
(§4) Determination of Binding Constants for Small Effector Molecules using Isothermal […]
(§5) The binding of the small effector molecules to the recombinant PII proteins was tested using isothermal titration calarmity (ITC); VP-ITC microcalorimeter (MicroCal). All titrations were performed on 20°C using […] injection syringe with injection 6 µl or 10 µl of the tested ligands for 45 or 29 times, respectively into the cell (1.4 ml) with continuous stirring at 155 rpm. All tested ligands were high grade, prepared freshly in the same buffer of the protein and purchased from Sigma-Aldrich. Heat isotherms for the dilution of the ligand in the cell buffer were collected in a blank run in the absence of protein. The received calorimetric data were analyzed using MicroCal Origin software and fitted into one-site and three-sequential binding sites models, as indicated by the manufacture for calculation of binding isotherms9. For data reproducibility, the titrations were performed in duplicates with different purification batches of recombinant PII proteins. The association binding constant (Ka) was generated from the software by de-convolution and curve fitting. For calculation of dissociation constant (Kd), the Ka value was inversed. […]

PhyscoPII = assay: ITC binding of small effector molecules to plant-moss PhyscoPII; set-up: species or system Physcomitrella patens
Description: as §1, §2, §3, §4
(§6) The binding of the small effector molecules to the recombinant PII proteins was tested using isothermal titration calarmity (ITC); VP-ITC microcalorimeter (MicroCal). All titrations were performed on 20°C using […] injection syringe with injection 6 µl or 10 µl of the tested ligands for 45 or 29 times, respectively into the cell (1.4 ml) with continuous stirring at 155 rpm. All tested ligands were high grade, prepared freshly in the same buffer of the protein and purchased from Sigma-Aldrich. Heat isotherms for the dilution of the ligand in the cell buffer were collected in a blank run in the absence of protein. The received calorimetric data were analyzed using MicroCal Origin software and fitted into one-site and three-sequential binding sites models, as indicated by the manufacture for calculation of binding isotherms9. For data reproducibility, the titrations were performed in duplicates with different purification batches of recombinant PII proteins. The association binding constant (Ka) was generated from the software by de-convolution and curve fitting. For calculation of dissociation constant (Kd), the Ka value was inversed.
5 mM MgCl2, 0.5 mM EDTA, and 10% glycerol (pH 7.6). […]
For determination the binding isotherms of plant-moss PhyscoPII protein, a strep-tagged recombinant protein (5 or 6 µM trimeric concentration) was used in system composed of 20 mM

PpPII = PpPII (Porphyra purpurea, UniProt P51254); assay: ITC binding of small effector molecules to red algal PpPII
Description: as §1, §2, §3, §4, §6
For determination the binding isotherms of red algal PpPII protein, a buffer system composed of […]
used. For determination ATP and ADP binding isotherms upon the binding to PpPII protein, His- […]
against 2 mM ATP or 2 mM ADP. For determination of ATP and ADP binding isotherms in […]
concentration) was titrated against 0.5 mM of ATP or 1 mM ADP, respectively. However, for […]
of 1 mM of ATP or 1 mM ADP. […]

SyPII [1] = molecular target: T1, SyPII (Synechococcus elongatus, UniProt P0A3F4); assay: ITC binding of small effector molecules to cyanobacterial SyPII; set-up: species or system Synechococcus elongatus PCC 7942
T1 construct: Strep-tag; made in house
Description: as §1, §2, §3, §4, §5
For determination the binding isotherms of cyanobacterial SyPII protein, a strep-tagged recombinant protein (20 µM trimeric concentration) was overexpressed and used as described previously9, 15, in a buffer composed of 10 mM Hepes-NaOH, 50 mM KCl, 50 mM NaCl, and 1

SyPII [2] = molecular target: T1, SyPII; details: in presence ADP, given in parentheses for comparison; cited from earlier work
[3] = titrant alone, read-out: Average Kd (one-site binding model)
[4] = titrant alone, read-out: Kd1 (three-sites binding model)
[5] = titrant alone, read-out: Kd2 (three-sites binding model)
[6] = titrant alone, read-out: Kd3 (three-sites binding model)

Sequence of PpPII (P51254 whole entry): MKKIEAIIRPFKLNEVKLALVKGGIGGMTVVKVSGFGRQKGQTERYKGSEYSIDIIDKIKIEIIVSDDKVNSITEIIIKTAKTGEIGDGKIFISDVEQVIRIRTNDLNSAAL
T1 sequence (P0A3F4 whole entry): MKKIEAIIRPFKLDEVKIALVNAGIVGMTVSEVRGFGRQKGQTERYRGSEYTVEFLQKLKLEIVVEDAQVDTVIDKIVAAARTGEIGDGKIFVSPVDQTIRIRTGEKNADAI

For O=C(O)CCC(=O)C(=O)O [2-OG, 2-oxoglutarate], the “Average Kd (one-site binding model)” value (CrPII; in presence ADP (2 mM)) was “never observed binding; also recorded: No binding”, the “Kd1 (three-sites binding model)” value (CrPII; in presence ADP (2 mM)) was “No binding” and the “Kd2 (three-sites binding model)” value (CrPII; in presence ADP (2 mM)) was “No binding”. The “Kd3 (three-sites binding model)” value (CrPII; in presence ADP (2 mM)) was “No binding”, the Kd (CrPII; in presence ATP (2 mM), read-out: Average Kd (one-site binding model)) was 15 ± 5.4 µM and the Kd (CrPII; in presence ATP (2 mM), read-out: Kd1 (three-sites binding model)) was 4.2 ± 0.7 µM. For the same compound, the Kd (CrPII; in presence ATP (2 mM), read-out: Kd2 (three-sites binding model)) was 21.3 ± 11 µM, the Kd (CrPII; in presence ATP (2 mM), read-out: Kd3 (three-sites binding model)) was 45.5 ± 19.8 µM and the “Average Kd (one-site binding model)” value (PhyscoPII; in presence ATP (1 mM)) was “unable to detect any binding; also recorded: No binding”. For the same compound, the “Kd1 (three-sites binding model)” value (PhyscoPII; in presence ATP (1 mM)) was “No binding”, the “Kd2 (three-sites binding model)” value (PhyscoPII; in presence ATP (1 mM)) was “No binding” and the “Kd3 (three-sites binding model)” value (PhyscoPII; in presence ATP (1 mM)) was “No binding”. The “N, number of calculated binding sites (one-site binding model)” value (“N, number of calculated binding sites” below) (PpPII; in presence ADP (1 mM)) was “No binding”, the “N, number of calculated binding sites” value (PpPII; in presence ATP (1 mM)) was 1.0 and the “N, number of calculated binding sites” value (SyPII [1]; in presence ATP (2 mM)) was 1.4. The “N, number of calculated binding sites” value (SyPII [2]) was “(No binding)”.
Nc1ncnc2c1ncn2[C@@H]1O[C@H](COP(=O)(O)OP(=O)(O)OP(=O)(O)O)[C@@H](O)[C@H]1O [ATP] showed a Kd (CrPII; in presence 2-OG (2 mM), read-out: Average Kd (one-site binding model)) of 35.8 ± 1.6 µM, a Kd (CrPII; in presence 2-OG (2 mM), read-out: Kd1 (three-sites binding model)) of 5.8 ± 5.8 µM and a Kd (CrPII; in presence 2-OG (2 mM), read-out: Kd2 (three-sites binding model)) of 53.1 ± 58.3 µM. The Kd (CrPII; in presence 2-OG (2 mM), read-out: Kd3 (three-sites binding model)) was 61.6 ± 9.7 µM, the “Average Kd (one-site binding model)” value (CrPII; titrant alone) was “unable to notice any binding; also recorded: No binding” and the “Kd1 (three-sites binding model)” value (CrPII; titrant alone) was “No binding”. The “Kd2 (three-sites binding model)” value (CrPII; titrant alone) was “No binding”, the “Kd3 (three-sites binding model)” value (CrPII; titrant alone) was “No binding” and the Kd (PhyscoPII; in presence 2-OG, read-out: Average Kd (one-site binding model)) was 17.6 ± 7.5 µM. For the same compound, the Kd (PhyscoPII; in presence 2-OG, read-out: Kd1 (three-sites binding model)) was 8 ± 6 µM, the Kd (PhyscoPII; in presence 2-OG, read-out: Kd2 (three-sites binding model)) was 16.3 ± 11.4 µM and the Kd (PhyscoPII; in presence 2-OG, read-out: Kd3 (three-sites binding model)) was 129 ± 128 µM. It also gave a Kd (PhyscoPII; [3]) of 26.8 ± 10.5 µM, a Kd (PhyscoPII; [4]) of 5.7 ± 1.4 µM and a Kd (PhyscoPII; [5]) of 13.6 ± 7.2 µM. The Kd (PhyscoPII; [6]) was 48.2 ± 29.3 µM, the Kd (PpPII; Average Kd (one-site binding model), in presence 2-OG (1 mM)) was 0.2 ± 0.3 µM and the Kd (PpPII; Average Kd (one-site binding model), titrant alone) was ~22 µM and 22 µM. The Kd (PpPII; Kd1 (three-sites binding model), in presence 2-OG (1 mM)) was 1.4 ± 1.8 µM, the Kd (PpPII; Kd1 (three-sites binding model), titrant alone) was 0.5 ± 0.2 µM and the Kd (PpPII; Kd2 (three-sites binding model), in presence 2-OG (1 mM)) was 1 ± 0.9 µM. For the same compound, the Kd (PpPII; Kd3 (three-sites binding model), in presence 2-OG (1 mM)) was 83.9 ± 62.4 µM, the Kd (PpPII; Kd3 (three-sites binding model), titrant alone) was 142 ± 80.8 µM and the “N, number of calculated binding sites” value (PpPII; in presence 2-OG (1 mM)) was 1.0. For the same compound, the Kd (PpPII; read-out: Kd2 (three-sites binding model), titrant alone) was 18.7 ± 9.2 µM, the “N, number of calculated binding sites” value (PpPII; titrant alone, per PII trimer) was 2.5 and the “N, number of calculated binding sites” value (SyPII [1]; in presence 2-OG (1 mM)) was 1.8. It also gave a Kd (SyPII [1]; in presence 2-OG (1 mM), read-out: Average Kd (one-site binding model)) of 2.7 ± 0.1 µM, a Kd (SyPII [1]; in presence 2-OG (1 mM), read-out: Kd1 (three-sites binding model)) of 0.5 ± 0.5 µM and a Kd (SyPII [1]; in presence 2-OG (1 mM), read-out: Kd2 (three-sites binding model)) of 3 ± 1.7 µM. The Kd (SyPII [1]; in presence 2-OG (1 mM), read-out: Kd3 (three-sites binding model)) was 325 ± 171 µM, the “N, number of calculated binding sites” value (SyPII [1]; titrant alone) was 3.2 and the Kd (SyPII [1]; [3]) was 43.3 ± 37.7 µM. For the same compound, the Kd (SyPII [1]; [4]) was 7.5 ± 7.3 µM, the Kd (SyPII [1]; [5]) was 15.9 ± 12.2 µM and the Kd (SyPII [1]; [6]) was 85.4 ± 74.6 µM.
